The structures appear in SMILES notation. Like-named read-outs stand apart in the source and are kept apart here.

This test deals with primary rat mixed cortical cells. In words: In vitro myelination assay (MBP positive myelin strands, fold myelin pixels above background). The format is cell-based. To be noted: for fold induction at 1 µM / fold induction at 10 µM: Rattus norvegicus. The procedure, abridged: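 P1 rat mixed cortical cultures (neurons, OPCs, oligodendrocytes, astrocytes, microglia) grown 14 days at 37 °C with compound, half-medium refreshed with compound on days 6 and 10. Fixed cells stained for MBP; MBP-positive myelin strand pixels per well quantified by automated imaging, reported as fold over no-compound baseline at 1.0 and 10.0 μM.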

Setting [1] is: 1.0 μM compound, read-out: Fold myelin pixels above background relative to baseline of no added compound.
[2] abbreviates: 10.0 μM compound, read-out: Fold myelin pixels above background relative to baseline of no added compound.
Setting [3] is: 1.0 μM compound, relative to baseline of no added compound, read-out: Fold myelin pixels above background.
Setting [4] is: 10.0 μM compound, relative to baseline of no added compound, read-out: Fold myelin pixels above background.
[5] abbreviates: 1.0 μM compound, relative to baseline of no added compound, read-out: Fold myelin pixels above background, 1.0 μM.
Where [6] appears, read: 10.0 μM compound, relative to baseline of no added compound, read-out: Fold myelin pixels above background, 10.0 μM.

Consider `CC(C)Oc1cc(Nc2ncn(-c3cc(F)cc(F)c3)n2)cc(N2CC(N3CCOCC3)C2)c1` [Compound 830, 1-(3,5-difluorophenyl)-N-[3-isopropoxy-5-(3-morpholinoazetidin-1-yl)phenyl]-1,2,4-triazol-3-amine], for which, under setting [1], the fold induction at 1 µM was in the range of 100 to 1000. Further, the fold induction at 10 µM under setting [2] lay within 10 to 100.

As to `FC(F)(F)c1cc(Nc2ncn(-c3cnccn3)n2)cc(N2CCN(C3COC3)CC2)c1` [Compound 514, N-[3-[4-(oxetan-3-yl)piperazin-1-yl]-5-(trifluoromethyl)phenyl]-1-pyrazin-2-yl-1,2,4-triazol-3-amine], the fold induction at 1 µM under setting [3] lay within 10 to 100. Further, the fold induction at 10 µM under setting [4] is 100 to 1000.

For `Cc1cc(Nc2ncn(-c3cc(F)cc(F)c3)n2)cc(C2CCCN(C3COC3)C2)c1` (stereo not drawn) [Compound 408, 1-(3,5-difluorophenyl)-N-[3-methyl-5-[1-(oxetan-3-yl)-3-piperidyl]phenyl]-1,2,4-triazol-3-amine], the fold induction at 1 µM under setting [3] lay within 100 to 1000. The fold induction at 10 µM under setting [4] was in the range of 10 to 100.

Take `Cc1cc(Nc2ncn(-c3ccccc3)n2)c(F)c(OC2CCOC2)c1` (single isomer, unassigned) [Compound 1052, N-(2-fluoro-5-methyl-3-tetrahydrofuran-3-yloxy-phenyl)-1-phenyl-1,2,4-triazol-3-amine]: the “Fold myelin pixels above background relative to baseline of no added compound” value is, setting by setting: (1.0 μM compound) “++ (>10 to 100x)”; (10.0 μM compound) “++ (>10 to 100x)”.

Consider `CC(=O)OCC(COC(C)=O)N1CCN(c2cc(C)cc(Nc3ncn(-c4cc(F)cc(F)c4)n3)c2F)CC1` [Compound 923, [3-acetoxy-2-[4-[3-[[1-(3,5-difluorophenyl)-1,2,4-triazol-3-yl]amino]-2-fluoro-5-methyl-phenyl]piperazin-1-yl]propyl] acetate], for which the fold induction at 1 µM under setting [1] lay within 10 to 100. Moreover, under setting [2], the fold induction at 10 µM lay within 1 to 10.

With `Cc1cc(Nc2ncn(-c3ccccc3)n2)cc(N2CCN(C3CCOC3)CC2)c1` (stereo not drawn) [Compound 434, N-[3-methyl-5-(4-tetrahydrofuran-3-ylpiperazin-1-yl)phenyl]-1-phenyl-1,2,4-triazol-3-amine], the fold induction at 1 µM under setting [3] was 1000 to 10000. Besides, under setting [4], the fold induction at 10 µM was 1000 to 10000.

On to `Cc1cc(Nc2ncn(-c3cc(F)cc(F)c3)n2)nc(NC2CCOC2)c1` (stereo not drawn) [Compound 614, N6-[1-(3,5-difluorophenyl)-1,2,4-triazol-3-yl]-4-methyl-N2-tetrahydrofuran-3-yl-pyridine-2,6-diamine], for which, under setting [3], the fold induction at 1 µM lay in the range of 1 to 10. In addition, the fold induction at 10 µM under setting [4] is 1 to 10.

Consider `Cc1cc(Nc2ncn(-c3cc(F)cc(F)c3)n2)cc(C2(F)CCN(C)C2)c1` (stereo not drawn) [Compound 23, 1-(3,5-difluorophenyl)-N-[3-(3-fluoro-1-methyl-pyrrolidin-3-yl)-5-methyl-phenyl]-1,2,4-triazol-3-amine], for which, under setting [5], the fold induction at 1 µM fell in the range of 10 to 100. Besides, the fold induction at 10 µM under setting [6] fell in the range of 10 to 100.

Consider `Cc1cc(Nc2ncn(-c3ccccn3)n2)cc(C2COC2)c1` [Compound 404, N-[3-methyl-5-(oxetan-3-yl)phenyl]-1-(2-pyridyl)-1,2,4-triazol-3-amine], for which the fold induction at 1 µM under setting [3] was in the range of 100 to 1000. The fold induction at 10 µM under setting [4] was in the range of 100 to 1000.

For `Fc1cc(Nc2ncn(-c3cccc(F)c3)n2)cc(NC2CNC2)c1` [Compound 351, N1-(azetidin-3-yl)-5-fluoro-N3-[1-(3-fluorophenyl)-1,2,4-triazol-3-yl]benzene-1,3-diamine], the fold induction at 1 µM under setting [5] fell in the range of 10 to 100. Moreover, the fold induction at 10 µM under setting [6] was ≤ 1.

Consider `COCCN1CCC(Nc2cc(C)cc(Nc3ncn(-c4cc(F)cc(F)c4)n3)c2)C1` (stereo not drawn) [Compound 894, N3-[1-(3,5-difluorophenyl)-1,2,4-triazol-3-yl]-N1-[1-(2-methoxyethyl)pyrrolidin-3-yl]-5-methyl-benzene-1,3-diamine], for which the fold induction at 1 µM under setting [1] is 10 to 100. Also, the fold induction at 10 µM under setting [2] is ≤ 1.

With `Cc1cc(Nc2ncn(-c3cc(F)cc(F)c3)n2)cc(N2CCN3C(=O)CCC3C2)c1` (stereo not drawn) [Compound 561, 2-[3-[[1-(3,5-difluorophenyl)-1,2,4-triazol-3-yl]amino]-5-methyl-phenyl]-1,3,4,7,8,8a-hexahydropyrrolo[1,2-a]pyrazin-6-one], the fold induction at 1 µM under setting [3] lay within 100 to 1000. Also, the fold induction at 10 µM under setting [4] lay within 10 to 100.

As to `COC1CCN(c2cc(C)cc(Nc3ncn(-c4cc(F)cc(F)c4)n3)c2)C1` (stereo not drawn) [Compound 164, 1-(3,5-difluorophenyl)-N-[3-(3-methoxypyrrolidin-1-yl)-5-methyl-phenyl]-1,2,4-triazol-3-amine], the fold induction at 1 µM under setting [5] was in the range of 1 to 10. For the same compound, under setting [6], the fold induction at 10 µM was in the range of 1 to 10.

In the case of `Fc1cc(-n2cnc(Nc3cc(C(F)F)cc(N4CCN(C5COC5)CC4)n3)n2)ccc1Cl` [Compound 621, N-[1-(4-chloro-3-fluoro-phenyl)-1,2,4-triazol-3-yl]-4-(difluoromethyl)-6-[4-(oxetan-3-yl)piperazin-1-yl]pyridin-2-amine], the fold induction at 1 µM under setting [3] lay within 10 to 100. Further, the fold induction at 10 µM under setting [4] lay in the range of 1 to 10.

For `Cc1cc(Nc2ncn(-c3cc(F)cc(F)c3)n2)cc(NC2CCCC2N2CCOCC2)c1` (stereo not drawn) [Compound 912, N3-[1-(3,5-difluorophenyl)-1,2,4-triazol-3-yl]-5-methyl-N1-(2-morpholinocyclopentyl)benzene-1,3-diamine], the fold induction at 1 µM under setting [1] fell in the range of 1 to 10. Moreover, under setting [2], the fold induction at 10 µM lay within 1 to 10.

For `Cc1cc(Nc2ncn(-c3cc(F)cc(F)c3)n2)cc(NC2CCN(C3COC3)CC2)c1` [Compound 38, N3-[1-(3,5-difluorophenyl)-1,2,4-triazol-3-yl]-5-methyl-N1-[1-(oxetan-3-yl)-4-piperidyl]benzene-1,3-diamine], the fold induction at 1 µM under setting [5] fell in the range of 10 to 100. For the same compound, the fold induction at 10 µM under setting [6] was 10 to 100.

Take `Cc1cc(NCC2CCN(C3CCOCC3)CC2)cc(Nc2ncn(-c3cc(F)cc(F)c3)n2)c1` [Compound 1046, N1-[1-(3,5-difluorophenyl)-1,2,4-triazol-3-yl]-5-methyl-N3-[(1-tetrahydropyran-4-yl-4-piperidyl)methyl]benzene-1,3-diamine]: under setting [1], the fold induction at 1 µM was 1 to 10. The fold induction at 10 µM under setting [2] is ≤ 1.

Consider `CCC1CN(CCNc2cc(C)cc(Nc3ncn(-c4cc(F)cc(F)c4)n3)c2)CCO1` (stereo not drawn) [Compound 917, N3-[1-(3,5-difluorophenyl)-1,2,4-triazol-3-yl]-N1-[2-(2-ethylmorpholin-4-yl)ethyl]-5-methyl-benzene-1,3-diamine], for which the fold induction at 1 µM under setting [1] lay in the range of 10 to 100. Also, the fold induction at 10 µM under setting [2] is ≤ 1.

For the compound `COCC1CCN(c2cc(Cl)cc(Nc3ncn(-c4ccccc4)n3)c2)CC1` [Compound 246, N-[3-chloro-5-[4-(methoxymethyl)-1-piperidyl]phenyl]-1-phenyl-1,2,4-triazol-3-amine], the fold induction at 1 µM under setting [5] fell in the range of 10 to 100. Besides, the fold induction at 10 µM under setting [6] is 100 to 1000.

Take `Fc1cc(F)cc(-n2cnc(Nc3cc(C(F)F)cc(N4CCCC5(COC5)C4)n3)n2)c1` [Compound 777, 4-(difluoromethyl)-N-[1-(3,5-difluorophenyl)-1,2,4-triazol-3-yl]-6-(2-oxa-8-azaspiro[3.5]nonan-8-yl)pyridin-2-amine]: the fold induction at 1 µM under setting [3] was 1 to 10. For the same compound, under setting [4], the fold induction at 10 µM was in the range of 10 to 100.

With `Clc1cc(Nc2ncn(-c3ccccc3)n2)cc(N2CCCC2)c1` [Compound 380, N-(3-chloro-5-pyrrolidin-1-yl-phenyl)-1-phenyl-1,2,4-triazol-3-amine], the fold induction at 1 µM under setting [5] lay in the range of 100 to 1000. For the same compound, under setting [6], the fold induction at 10 µM lay within 10 to 100.

For `Cc1cc(Nc2ncn(-c3cc(F)cc(F)c3)n2)cc(N2CCC(OCCN3CCCC3)CC2)c1` [Compound 1074, 1-(3,5-difluorophenyl)-N-[3-methyl-5-[4-(2-pyrrolidin-1-ylethoxy)-1-piperidyl]phenyl]-1,2,4-triazol-3-amine], under setting [1], the fold induction at 1 µM was 1 to 10. The fold induction at 10 µM under setting [2] was ≤ 1.

In the case of `Cc1cc(Nc2ncn(-c3cc(F)cc(F)c3)n2)c(F)c(N2CC(N3CCOCC3)C2)c1` [Compound 790, 1-(3,5-difluorophenyl)-N-[2-fluoro-5-methyl-3-(3-morpholinoazetidin-1-yl)phenyl]-1,2,4-triazol-3-amine], the fold induction at 1 µM under setting [1] lay in the range of 10 to 100. For the same compound, the fold induction at 10 µM under setting [2] was in the range of 10 to 100.

Regarding `Cc1cc(Nc2ncn(-c3cncnc3)n2)cc(N2CCN(C3COC3)CC2)c1` [Compound 535, N-[3-methyl-5-[4-(oxetan-3-yl)piperazin-1-yl]phenyl]-1-pyrimidin-5-yl-1,2,4-triazol-3-amine], under setting [3], the fold induction at 1 µM fell in the range of 1 to 10. Also, the fold induction at 10 µM under setting [4] lay within 1 to 10.

Consider `Cc1cc(Nc2ncn(-c3ccccc3)n2)cc(Nc2ncn(-c3ccccc3)n2)c1` [Compound 681, 5-methyl-N1,N3-bis(1-phenyl-1,2,4-triazol-3-yl)benzene-1,3-diamine], for which the fold induction at 1 µM under setting [3] lay within 10 to 100. Under setting [4], the fold induction at 10 µM was 1 to 10.

For the compound `Cc1cc(Nc2ncn(-c3ccccc3)n2)cc(C2CCN(C3COC3)C2)c1` (stereo not drawn) [Compound 260, N-[3-methyl-5-[1-(oxetan-3-yl)pyrrolidin-3-yl]phenyl]-1-phenyl-1,2,4-triazol-3-amine], the fold induction at 1 µM under setting [5] was in the range of 1000 to 10000. The fold induction at 10 µM under setting [6] is ≤ 1.

Turning to `CCc1cc(Nc2ncn(-c3cncc(C)n3)n2)cc(N2CCN(C3COC3)CC2)c1` [Compound 401, N-[3-ethyl-5-[4-(oxetan-3-yl)piperazin-1-yl]phenyl]-1-(6-methylpyrazin-2-yl)-1,2,4-triazol-3-amine], under setting [3], the fold induction at 1 µM is 100 to 1000. Further, the fold induction at 10 µM under setting [4] was 100 to 1000.

These data come from US10766869B2, “Triazoles for the treatment of demyelinating dieases” (Vertex Pharmaceuticals Incorporated, priority 2015, dated 2020).
